# Data taken from US20250144223A1, “PROTEIN DEGRADATION COMPOUND BASED ON NAMPT TARGET PROTEIN AND APPLICATION THEREOF” (GLUETACS THERAPEUTICS (SHANGHAI) CO., LTD., priority 2021, published 2025).
# Test system: Jurkat
# Test: CellTiter-Glo Luminescent Cell Viability Assay, half inhibitory concentration (IC50) on tumor cell proliferation
# Format: cell-based
# Conditions: Homo sapiens, Jurkat cells, 72 h treatment
# Procedure: The tumor cells used herein were cultured in a cell culture medium at 37° C. in an incubator with 5% CO2, where the cell culture medium was supplemented with 10% FBS, as well as penicillin at a final concentration of 100 U/mL and streptomycin at a final concentration of 100 μg/mL. Prior to experimentation, all cells used were identified as correct cells by STR cells, and were negative for mycoplasma through routine testing.
# IC50 values of the compounds of the present disclosure (including the compounds in Table 1 and compounds of examples) were measured using the CellTiter-Glo® Luminescent Cell Viability Assay kit from Promega Corporation. Assay details are as follows: Cells were seeded in 100 μL RPMI1640 medium containing serum at a density of 20,000 cells/well. After 24 h, the inoculated cells were treated with the compounds of the present disclosure which were serially diluted. After the cells were treated with the compounds of the present disclosure for 72 h, the CellTiter-Glo® reagent was added to the culture medium for cell viability assessment according to the instructions provided with the kit. DMSO served as the negative control, and FK866 inhibitor was used as the positive control, both treated with the same protocol as the compounds of the present disclosure. The growth inhibition of the compounds of the present disclosure on cells was plotted by Prism Graphpad software, and the IC50 values of the compounds of the present disclosure were calculated therefrom.
row,Compound,IC50 [nM]
1,"O=C(/C=C/c1cccnc1)NCCCCC1CCN(C(=O)c2ccc(N3CCN(CCCCCCCSc4cccc5c4CN(C4CCC(=O)NC4=O)C5=O)CC3)cc2)CC1 (stereo not drawn) [SIAIS630134, (E)-N-(4-(1-(4-(4-(7-((2-(2,6-dioxopiperidin-3-yl)-1-oxoisoindolin-4-yl)thio)heptyl)piperazin-1-yl)benzoyl)piperidin-4-yl)butyl)-3-(pyridin-3-yl)acrylamide]",7.28
2,"O=C(/C=C/c1cccnc1)NCCCCC1CCN(C(=O)c2ccc(N3CCN(CCCCCCCCSc4cccc5c4CN(C4CCC(=O)NC4=O)C5=O)CC3)cc2)CC1 (stereo not drawn) [SIAIS630135, (E)-N-(4-(1-(4-(4-(8-((2-(2,6-dioxopiperidin-3-yl)-1-oxoisoindolin-4-yl)thio)octyl)piperazin-1-yl)benzoyl)piperidin-4-yl)butyl)-3-(pyridin-3-yl)acrylamide]",4.02
3,"O=C(/C=C/c1cccnc1)NCCCCC1CCN(C(=O)c2ccc(N3CCN(CCSc4cccc5c4C(=O)N(C4CCC(=O)NC4=O)C5=O)CC3)cc2)CC1 (stereo not drawn) [SIAIS631068, (E)-N-(4-(1-(4-(4-(2-((2-(2,6-dioxopiperidin-3-yl)-1,3-dioxoisoindolin-4-yl)thio)ethyl)piperazin-1-yl)benzoyl)piperidin-4-yl)butyl)-3-(pyridin-3-yl)acrylamide]",74.4
4,"O=C(/C=C/c1cccnc1)NCCCCC1CCN(C(=O)c2ccc(N3CCN(CCCSc4cccc5c4C(=O)N(C4CCC(=O)NC4=O)C5=O)CC3)cc2)CC1 (stereo not drawn) [SIAIS631069, (E)-N-(4-(1-(4-(4-(3-((2-(2,6-dioxopiperidin-3-yl)-1,3-dioxoisoindolin-4-yl)thio)propyl)piperazin-1-yl)benzoyl)piperidin-4-yl)butyl)-3-(pyridin-3-yl)acrylamide]",71.2
5,"O=C(/C=C/c1cccnc1)NCCCCC1CCN(C(=O)c2ccc(N3CCN(CCCCSc4cccc5c4C(=O)N(C4CCC(=O)NC4=O)C5=O)CC3)cc2)CC1 (stereo not drawn) [SIAIS631070, (E)-N-(4-(1-(4-(4-(4-((2-(2,6-dioxopiperidin-3-yl)-1,3-dioxoisoindolin-4-yl)thio)butyl)piperazin-1-yl)benzoyl)piperidin-4-yl)butyl)-3-(pyridin-3-yl)acrylamide]",62.9

# Continued by falling IC50, values first:
row,IC50 [nM],Compound
1,635,"O=C(/C=C/c1cccnc1)NCCCCC1CCN(C(=O)c2ccc(N3CCN(CCCCCSc4cccc5c4C(=O)N(C4CCC(=O)NC4=O)C5=O)CC3)cc2)CC1 (stereo not drawn) [SIAIS631071, (E)-N-(4-(1-(4-(4-(5-((2-(2,6-dioxopiperidin-3-yl)-1,3-dioxoisoindolin-4-yl)thio)pentyl)piperazin-1-yl)benzoyl)piperidin-4-yl)butyl)-3-(pyridin-3-yl)acrylamide]"
2,140,"Cc1ncsc1-c1ccc(CNC(=O)[C@@H]2C[C@@H](O)CN2C(=O)[C@@H](NC(=O)CCOCCOCCC(=O)N2CCN(c3ccc(C(=O)N4CCC(CCCCNC(=O)/C=C/c5cccnc5)CC4)cc3)CC2)C(C)(C)C)cc1 [SIAIS631011, (2S,4R)-1-((S)-3,3-dimethyl-2-(3-(2-(3-oxo-3-(4-(4-(4-(4-((E)-3-(pyridin-3-yl)acrylamido)butyl)piperidine-1-carbonyl)phenyl)piperazin-1-yl)propoxy)ethoxy)propanamido)butanoyl)-4-hydroxy-N-(4-(4-methylthiazol-5-yl)benzyl)pyrrolidine-2-carboxamide]"
3,80,"O=C(/C=C/c1cccnc1)NCCCCN1CCN(C(=O)c2ccc(N3CCN(CCCCCC#Cc4cccc5c4CN(C4CCC(=O)NC4=O)C5=O)CC3)cc2)CC1 (stereo not drawn) [SIAIS631045, (E)-N-(4-(4-(4-(4-(7-(2-(2,6-dioxopiperidin-3-yl)-1-oxoisoindolin-4-yl)hept-6-yn-1-yl)piperazin-1-yl)benzoyl)piperazin-1-yl)butyl)-3-(pyridin-3-yl)acrylamide]"
4,64.5,"O=C(/C=C/c1cccnc1)NCCCCC1CCN(C(=O)c2ccc(N3CCN(CCCCCCCCCCCSc4cccc5c4CN(C4CCC(=O)NC4=O)C5=O)CC3)cc2)CC1 (stereo not drawn) [SIAIS630136, (E)-N-(4-(1-(4-(4-(11-((2-(2,6-dioxopiperidin-3-yl)-1-oxoisoindolin-4-yl)thio)undecyl)piperazin-1-yl)benzoyl)piperidin-4-yl)butyl)-3-(pyridin-3-yl)acrylamide]"
